Test results: paper PMC10328743, “5-Nitro-3-(2-(4-phenylthiazol-2-yl)hydrazineylidene)indolin-2-one derivatives inhibit HIV-1 replication by a multitarget mechanism of action” (Frontiers in Cellular and Infection Microbiology, 2023)
Like-named read-outs stand apart in the source and are kept apart here.

How the values were obtained:
HIV-1 RT-associated RDDP = target: T1, HIV-1 RT-associated RDDP (Human immunodeficiency virus type 1 group M subtype B, UniProt P04585); assay: HIV-1 RNA-dependent DNA polymerase activity determination; type: biochemical
T1 construct: The 1:1 ratio between the p66/p51 subunits was also verified; His tag (implied only by Ni-NTA IMAC purification); made in house; host or cells: Escherichia coli M15
Method: (§1) Escherichia coli strain M15 containing the p6HRT-prot vector (provided by Stuart Le Grice laboratory (NCI Frederick)) was grown to an optical density at 600 nm of 0.7 and induced with 1.7 mM of isopropyl β-D-1-thiogalactopyranoside (IPTG) for 4 h. Protein purification was carried out with a BioLogic LP system (Bio-Rad, Hercules, CA, USA) using a combination of immobilized metal affinity chromatography (IMAC) and ion exchange chromatography. Cell pellets were resuspended in lysis buffer (50 mM of sodium phosphate buffer, pH 7.8, containing 0.5 mg/mL of lysozyme), incubated on ice for 20 min, and, after the addition of NaCl to a final concentration of 0.3 M, were sonicated and centrifuged at 30,000 ×g for 1 h. The supernatant was loaded onto a Ni^2+-NTA-Sepharose column pre-equilibrated with loading buffer (50 mM of sodium phosphate buffer, pH 7.8, containing 0.3 M of NaCl, 10% glycerol, and 10 mM of imidazole) and washed thoroughly with wash buffer (50 mM of sodium phosphate buffer, pH 6.0, containing 0.3 M of NaCl, 10% glycerol, and 80 mM of imidazole). RT was eluted with an imidazole gradient in the wash buffer (0–0.5 M). Fractions were collected, and protein purity was checked by sodium dodecyl sulfate–polyacrylamide gel electrophoresis (SDS-PAGE) and found to be higher than 90%. The 1:1 ratio between the p66/p51 subunits was also verified. Enzyme-containing fractions were pooled and diluted 1:1 with 50 mM of sodium phosphate buffer, pH 7.0, containing 10% glycerol, and then loaded into a Hi-trap heparin HP GE (Healthcare LifeScience) pre-equilibrated with 10 column volumes of loading buffer (50 mM of sodium phosphate buffer, pH 7.0, containing 10% glycerol, and 150 mM of NaCl). The column was then washed with loading buffer, and the RT was eluted with Elute Buffer 2 (50 mM of sodium phosphate, pH 7.0, 10% glycerol, 1 M of NaCl). Fractions were collected, and the protein was dialyzed and stored in a buffer containing 50 mM of Tris-HCl, pH 7.0, 25 mM of NaCl, 1 mM of EDTA, and 50% glycerol. Catalytic activities and protein concentrations were determined. Enzyme-containing fractions were pooled, and aliquots were stored at −80°C.
RDDP activity was measured as previously reported in 25-µl volume containing 60 mM of Tris‐HCl buffer, pH 8.1, 8 mM of MgCl2, 60 mM of KCl, 13 mM of DTT, 2.5 µM of poly(A)-oligo(dT), 100 µM of dTTP, increasing concentrations of inhibitors, whose dilution were made in water, and different amounts of enzymes according to a linear range of the dose–response curve. The reaction mixture was incubated for 30 min at 37°C and then stopped by the addition of EDTA. Reaction products were detected by pico green addition and measured with a multilabel counter plate reader Victor 3, equipped with filters for 502/523 nm.

[1] = Viability of infected MT4 cells (cytotoxicity); type: cell-based; conditions: human, infected MT4 cells viability, three independent experiments, average ± standard deviation
Method: (§2) HIV-1 replication was carried out in MT4 cells as previously reported ([Corona et al., 2016a]) using a molecular clone derived from the pNL4-3 ([Thierry et al., 2015]). A total of 120 ng of p24^gag antigen per 10^6 cells, corresponding to a multiplicity of infection (m.o.i.) of 0.3, was used for infection. […] Flow cytometry analysis was performed on a FACSCalibur flow cytometer (BD Biosciences, San Jose, CA, USA), and the results were analyzed using the […] software.

HIV-1 = HIV-1 replication inhibition in MT4 cells; type: cell-based
Method: as §2

[2] = target: T2, HIV-1 RT-associated RNase H (Human immunodeficiency virus type 1 group M subtype B, UniProt P04585); assay: HIV-1 DNA polymerase-independent RNase H activity determination; type: biochemical
T2 construct: The 1:1 ratio between the p66/p51 subunits was also verified; His tag (implied only by Ni-NTA IMAC purification); made in house; host or cells: Escherichia coli M15
Method: as §1
HIV RT-associated RNase H activity was measured as described ([Corona et al., 2016b]) in a 100-µl reaction volume containing 50 mM of Tris-HCl buffer, pH 7.8, 6 mM of MgCl2, 1 mM of dithiothreitol (DTT), 80 mM of KCl, 0.25 µM of hybrid RNA/DNA 5′-[…]-Fluorescin-3′ (high-performance liquid chromatography (HPLC), dry, QC: Mass Check) (available from Metabion) 5′-Dabcyl-[…]-3′ (HPLC, dry, QC: Mass Check), increasing concentrations of inhibitors, whose dilution were made in water, and different amounts of enzymes according to a linear range of the dose–response curve. The reaction mixture was incubated for 1 h at 37°C and stopped by the addition of EDTA, and products were measured with a multilabel counter plate reader Victor 3 equipped with filters for 490/528 nm.

[3] = wt HIV-1 RT, three independent experiments, average ± standard deviation, read-out: RDDP IC50
[4] = Human immunodeficiency virus 1, MT4, viral replication in MT4 cells, three independent experiments, average ± standard deviation, read-out: HIV-1 EC50
[5] = wt HIV-1 RT, three independent experiments, average ± standard deviation, read-out: RNase H IC50
[6] = Human immunodeficiency virus 1, MT4, read-out: HIV-1 EC50

Cn1c(-c2ccc(F)cc2)cs/c1=N\N=C1/C(=O)Nc2ccc([N+](=O)[O-])cc21 [2c]
IC50 (HIV-1 RT-associated RDDP; [3]): 21 ± 1 µM
CC50 ([1]; MT4 cells infected with HIV-1): 7 ± 1.6 µM
EC50 (HIV-1; [4]): > 7 µM
IC50 [2, 5]: 5.6 ± 0.6 µM

Cn1c(-c2ccc(-c3ccccc3)cc2)cs/c1=N\N=C1/C(=O)Nc2ccc([N+](=O)[O-])cc21 [5c]
IC50 (HIV-1 RT-associated RDDP; [3]): 11.4 ± 2.2 µM
CC50 ([1]; MT4 cells infected with HIV-1): 7 ± 1.4 µM
EC50 (HIV-1; [4]): > 7 µM
IC50 [2, 5]: 6.1 ± 1.1 µM

Cn1c(-c2ccc([N+](=O)[O-])cc2)cs/c1=N\N=C1/C(=O)Nc2ccc([N+](=O)[O-])cc21 [4c]
IC50 (HIV-1 RT-associated RDDP): 6 ± 0.5 µM
CC50 [1]: 5.5 ± 0.9 µM
EC50 (HIV-1; [6]): > 5.5 µM
IC50 [2]: 1.9 ± 0.2 µM

O=C1Nc2ccc(Cl)cc2/C1=N/Nc1nc(-c2ccc(F)cc2)cs1 [2b]
IC50 (HIV-1 RT-associated RDDP; [3]): 7.5 ± 1.5 µM
CC50 ([1]; MT4 cells infected with HIV-1): 56 ± 6 µM
EC50 (HIV-1; [4]): > 56 µM
IC50 [2, 5]: 4.5 ± 0.2 µM

O=C1Nc2ccc([N+](=O)[O-])cc2/C1=N/Nc1nc(-c2ccc(F)cc2F)cs1 [7a]
IC50 (HIV-1 RT-associated RDDP; [3]): 11.5 ± 0.5 µM
IC50 [2, 5]: 6 ± 0.1 µM

O=C1Nc2ccc(Cl)cc2C1=NNc1nc(-c2ccc(Cl)cc2)cs1 [1b]
IC50 (HIV-1 RT-associated RDDP; [3]): 30 ± 7.5 µM
CC50 ([1]; MT4 cells infected with HIV-1): > 100 µM
EC50 (HIV-1; [4]): > 100 µM
IC50 [2, 5]: 12 ± 2.3 µM

N#Cc1ccc(-c2csc(N/N=C3\C(=O)Nc4ccc([N+](=O)[O-])cc43)n2)cc1 [6a]
IC50 (HIV-1 RT-associated RDDP; [3]): 9.3 ± 0.3 µM
CC50 ([1]; MT4 cells infected with HIV-1): > 100 µM
EC50 (HIV-1; [4]): > 100 µM
IC50 [2, 5]: 6 ± 0.1 µM

Cc1ccc(-c2csc(NN=C3C(=O)Nc4ccc(Cl)cc43)n2)cc1 [10b]
IC50 (HIV-1 RT-associated RDDP; [3]): 18 ± 0.7 µM
CC50 ([1]; MT4 cells infected with HIV-1): > 100 µM
EC50 (HIV-1; [4]): > 100 µM
IC50 [2, 5]: 10 ± 1.4 µM

O=C1Nc2ccc(Cl)cc2/C1=N/Nc1nc(-c2cccc([N+](=O)[O-])c2)cs1 [8b]
IC50 (HIV-1 RT-associated RDDP; [3]): 72 ± 13 µM
IC50 [2, 5]: 22 ± 1 µM

O=C1Nc2ccc([N+](=O)[O-])cc2/C1=N/Nc1nc(-c2ccc([N+](=O)[O-])cc2)cs1 [4a]
IC50 (HIV-1 RT-associated RDDP): 21 ± 3 µM
CC50 [1]: > 100 µM
EC50 (HIV-1; [6]): > 100 µM
IC50 [2]: 7.6 ± 1.4 µM

O=C1Nc2ccc([N+](=O)[O-])cc2/C1=N/Nc1nc(-c2cccc([N+](=O)[O-])c2)cs1 [8a]
IC50 (HIV-1 RT-associated RDDP; [3]): 18.5 ± 0.5 µM
IC50 [2, 5]: 6.5 ± 0.5 µM

O=C1Nc2ccc(Cl)cc2/C1=N/Nc1nc(-c2ccc(-c3ccccc3)cc2)cs1 [5b]
IC50 (HIV-1 RT-associated RDDP; [3]): 38 ± 5 µM
IC50 [2, 5]: 13.2 ± 1.6 µM

Cn1c(-c2ccc(Cl)cc2)cs/c1=N\N=C1/C(=O)Nc2ccc([N+](=O)[O-])cc21 [1c]
IC50 (HIV-1 RT-associated RDDP; [3]): 24 ± 3 µM
CC50 ([1]; MT4 cells infected with HIV-1): 42 ± 8 µM
EC50 (HIV-1; [4]): > 42 µM
IC50 [2, 5]: 8.2 ± 1 µM

O=C1Nc2ccc([N+](=O)[O-])cc2/C1=N/Nc1nc(-c2ccc(-c3ccccc3)cc2)cs1 [5a]
IC50 (HIV-1 RT-associated RDDP; [3]): 12 ± 3 µM
CC50 ([1]; MT4 cells infected with HIV-1): > 100 µM
EC50 (HIV-1; [4]): > 100 µM
IC50 [2, 5]: 7.1 ± 0.1 µM

COc1ccc(-c2csc(N/N=C3\C(=O)Nc4ccc([N+](=O)[O-])cc43)n2)cc1 [11a]
IC50 (HIV-1 RT-associated RDDP; [3]): 14.5 ± 0.5 µM
CC50 ([1]; MT4 cells infected with HIV-1): > 100 µM
EC50 (HIV-1; [4]): > 100 µM
IC50 [2, 5]: 8.5 ± 0.6 µM
